Values joined by “and” are separate entries in the source; they are usually repeats but may differ in a detail not shown here. Identical values can stand only once. Toxic doses and inconclusive results are not listed.
Tested on: L1210 leukemia ip in BDF1 mice, survival T/C
Assay: NCI In Vivo Anticancer Drug Screen. Data for tumor model L1210 Leukemia (intraperitoneal) in B6D2F1 (BDF1) mice
Conditions: endpoint: mean survival time, higher = longer survival
Method in brief: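 Read-out is survival time, reported as the treated-group measurement over the vehicle-control measurement.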

With C=CC(CN1CC1)OC(C)=O (stereo unspecified) the T/C (dose: 0.25 mg/kg/injection, schedule: Q03DX Z (ip), vehicle: saline) was 104 % of control, the T/C (dose: 0.5 mg/kg/injection, schedule: Q01DX010 (oral), vehicle: saline) was 120 % of control and the T/C (dose: 0.5 mg/kg/injection, schedule: Q03DX Z (ip), vehicle: saline) was 98 % of control. For the same compound, the T/C (dose: 0.95 mg/kg/injection, schedule: Q01DX Z (ip), vehicle: olive oil, sesame oil, peanut oil) was 105 % of control, the T/C (dose: 0.95 mg/kg/injection, schedule: Q01DX Z (oral), vehicle: olive oil, sesame oil, peanut oil) was 100 % of control and the T/C (dose: 1.0 mg/kg/injection, schedule: Q03DX Z (ip), vehicle: saline) was 106 % of control. The T/C (dose: 1.0 mg/kg/injection, schedule: Q07DX Z (ip), vehicle: saline) was 105 % of control, the T/C (dose: 1.2 mg/kg/injection, schedule: Q01DX Z (ip), vehicle: carboxymethylcellulose (CMC)) was 104 % of control and the T/C (dose: 1.24 mg/kg/injection, schedule: Q01DX Z (ip), vehicle: carboxymethylcellulose (CMC)) was 109 % of control. For the same compound, the T/C (dose: 1.3 mg/kg/injection, schedule: Q#A X Z (ip), vehicle: other) was 112 % of control, the T/C (dose: 1.8 mg/kg/injection, schedule: Q01DX Z (ip), vehicle: carboxymethylcellulose (CMC)) was 93 % of control and 98 % of control and the T/C (dose: 1.8 mg/kg/injection, schedule: Q01DX Z (oral), vehicle: carboxymethylcellulose (CMC)) was 102 % of control. The T/C (dose: 1.9 mg/kg/injection, schedule: Q01DX Z (ip), vehicle: olive oil, sesame oil, peanut oil) was 116 % of control, the T/C (dose: 1.9 mg/kg/injection, schedule: Q01DX Z (oral), vehicle: olive oil, sesame oil, peanut oil) was 103 % of control and the T/C (dose: 1.9 mg/kg/injection, schedule: Q01DX Z (oral), vehicle: other) was 102 % of control. The T/C (dose: 2.0 mg/kg/injection, schedule: Q01DX006 (iv), vehicle: saline) was 100 % of control, the T/C (dose: 2.0 mg/kg/injection, schedule: Q01DX010 (oral), vehicle: saline) was 100 % of control and the T/C (dose: 2.0 mg/kg/injection, schedule: Q02DX004 (im), vehicle: saline) was 116 % of control. For the same compound, the T/C (dose: 2.0 mg/kg/injection, schedule: Q07DX Z (ip), vehicle: saline) was 95 % of control, the T/C (dose: 2.48 mg/kg/injection, schedule: Q01DX Z (ip), vehicle: carboxymethylcellulose (CMC)) was 109 % of control and the T/C (dose: 2.5 mg/kg/injection, schedule: Q01DX Z (oral), vehicle: saline) was 121 % of control. For the same compound, the T/C (dose: 2.6 mg/kg/injection, schedule: Q01DX Z (ip), vehicle: other) was 117 % of control, the T/C (dose: 2.6 mg/kg/injection, schedule: Q01DX Z (sc), vehicle: other) was 119 % of control and the T/C (dose: 2.7 mg/kg/injection, schedule: Q01DX Z (ip), vehicle: carboxymethylcellulose (CMC)) was 118 % of control. For the same compound, the T/C (dose: 3.25 mg/kg/injection, schedule: Q01DX Z (ip), vehicle: saline) was 151 % of control, the T/C (dose: 3.25 mg/kg/injection, schedule: Q01DX Z (oral), vehicle: saline) was 161 % of control and the T/C (dose: 3.7 mg/kg/injection, schedule: Q01DX Z (ip), vehicle: carboxymethylcellulose (CMC)) was 93 % of control. For the same compound, the T/C (dose: 3.7 mg/kg/injection, schedule: Q01DX Z (oral), vehicle: carboxymethylcellulose (CMC)) was 101 % of control and 90 % of control, the T/C (dose: 3.75 mg/kg/injection, schedule: Q01DX Z (ip), vehicle: olive oil, sesame oil, peanut oil) was 122 % of control and the T/C (dose: 3.75 mg/kg/injection, schedule: Q01DX Z (oral), vehicle: olive oil, sesame oil, peanut oil) was 105 % of control. For the same compound, the T/C (dose: 3.8 mg/kg/injection, schedule: Q01DX Z (ip), vehicle: olive oil, sesame oil, peanut oil) was 90 % of control, the T/C (dose: 3.8 mg/kg/injection, schedule: Q01DX Z (oral), vehicle: other) was 120 % of control and the T/C (dose: 4.0 mg/kg/injection, schedule: Q01DX006 (iv), vehicle: saline) was 108 % of control. The T/C (dose: 4.0 mg/kg/injection, schedule: Q01DX Z (sc), vehicle: other) was 122 % of control, the T/C (dose: 4.0 mg/kg/injection, schedule: Q02DX004 (im), vehicle: saline) was 120 % of control and the T/C (dose: 4.0 mg/kg/injection, schedule: Q07DX Z (ip), vehicle: saline) was 115 % of control. For the same compound, the T/C (dose: 4.5 mg/kg/injection, schedule: Q#A X Z (ip), vehicle: other) was 102 % of control, the T/C (dose: 7.5 mg/kg/injection, schedule: Q01DX009 (ip), vehicle: saline) was 191 % of control and the T/C (dose: 7.5 mg/kg/injection, schedule: Q01DX Z (ip), vehicle: carboxymethylcellulose (CMC)) was 104 % of control. For the same compound, the T/C (dose: 7.5 mg/kg/injection, schedule: Q01DX Z (ip), vehicle: saline) was 259 % of control, the T/C (dose: 7.5 mg/kg/injection, schedule: Q01DX Z (oral), vehicle: carboxymethylcellulose (CMC)) was 93 % of control and 96 % of control and the T/C (dose: 7.5 mg/kg/injection, schedule: Q01DX Z (oral), vehicle: olive oil, sesame oil, peanut oil) was 111 % of control. For the same compound, the T/C (dose: 7.5 mg/kg/injection, schedule: Q01DX Z (oral), vehicle: saline) was 150 % of control, the T/C (dose: 7.6 mg/kg/injection, schedule: Q01DX Z (oral), vehicle: olive oil, sesame oil, peanut oil) was 150 % of control and the T/C (dose: 7.6 mg/kg/injection, schedule: Q01DX Z (oral), vehicle: other) was 88 % of control. For the same compound, the T/C (dose: 8.0 mg/kg/injection, schedule: Q03DX Z (ip), vehicle: other) was 153 % of control, the T/C (dose: 8.0 mg/kg/injection, schedule: Q07DX Z (ip), vehicle: saline) was 121 % of control and the T/C (dose: 9.0 mg/kg/injection, schedule: Q01DX Z (ip), vehicle: other) was 100 % of control. The T/C (dose: 10.0 mg/kg/injection, schedule: Q01DX Z (oral), vehicle: saline) was 169 % of control, the T/C (dose: 11.0 mg/kg/injection, schedule: Q01DX001 (ip), vehicle: saline) was 109 % of control and 118 % of control and the T/C (dose: 12.0 mg/kg/injection, schedule: Q03DX Z (ip), vehicle: other) was 159 % of control. For the same compound, the T/C (dose: 14.85 mg/kg/injection, schedule: Q01DX Z (ip), vehicle: carboxymethylcellulose (CMC)) was 96 % of control, the T/C (dose: 15.0 mg/kg/injection, schedule: Q01DX009 (ip), vehicle: saline) was 107 % of control and the T/C (dose: 15.0 mg/kg/injection, schedule: Q01DX Z (ip), vehicle: carboxymethylcellulose (CMC)) was 120 % of control. The T/C (dose: 15.0 mg/kg/injection, schedule: Q01DX Z (ip), vehicle: saline) was 111 % of control, the T/C (dose: 15.0 mg/kg/injection, schedule: Q01DX Z (oral), vehicle: carboxymethylcellulose (CMC)) was 102 % of control and 117 % of control and the T/C (dose: 15.0 mg/kg/injection, schedule: Q01DX Z (oral), vehicle: saline) was 108 % of control. The T/C (dose: 15.1 mg/kg/injection, schedule: Q01DX Z (oral), vehicle: olive oil, sesame oil, peanut oil) was 104 % of control, the T/C (dose: 15.1 mg/kg/injection, schedule: Q01DX Z (oral), vehicle: other) was 96 % of control and the T/C (dose: 16.0 mg/kg/injection, schedule: Q02DX004 (im), vehicle: saline) was 189 % of control. For the same compound, the T/C (dose: 17.0 mg/kg/injection, schedule: Q01DX001 (ip), vehicle: saline) was 116 % of control, the T/C (dose: 18.0 mg/kg/injection, schedule: Q03DX Z (ip), vehicle: other) was 112 % of control and the T/C (dose: 18.0 mg/kg/injection, schedule: Q07DX Z (ip), vehicle: other) was 175 % of control. The T/C (dose: 19.8 mg/kg/injection, schedule: Q01DX Z (ip), vehicle: carboxymethylcellulose (CMC)) was 96 % of control, the T/C (dose: 20.0 mg/kg/injection, schedule: Q01DX Z (oral), vehicle: saline) was 106 % of control and the T/C (dose: 25.0 mg/kg/injection, schedule: Q01DX001 (ip), vehicle: saline) was 153 % of control. For the same compound, the T/C (dose: 27.0 mg/kg/injection, schedule: Q03DX Z (ip), vehicle: other) was 89 % of control, the T/C (dose: 28.0 mg/kg/injection, schedule: Q07DX Z (ip), vehicle: other) was 158 % of control and the T/C (dose: 30.0 mg/kg/injection, schedule: Q01DX Z (ip), vehicle: saline) was 105 % of control. The T/C (dose: 30.0 mg/kg/injection, schedule: Q01DX Z (oral), vehicle: carboxymethylcellulose (CMC)) was 101 % of control and 113 % of control, the T/C (dose: 30.0 mg/kg/injection, schedule: Q01DX Z (oral), vehicle: saline) was 111 % of control and 88 % of control and the T/C (dose: 32.0 mg/kg/injection, schedule: Q02DX004 (im), vehicle: saline) was 97 % of control. For the same compound, the T/C (dose: 32.0 mg/kg/injection, schedule: Q07DX Z (ip), vehicle: saline) was 210 % of control, the T/C (dose: 50.0 mg/kg/injection, schedule: Q01DX001 (ip), vehicle: saline) was 94 % of control and the T/C (dose: 60.0 mg/kg/injection, schedule: Q01DX Z (ip), vehicle: saline) was 116 % of control. The T/C (dose: 60.0 mg/kg/injection, schedule: Q01DX Z (oral), vehicle: saline) was 113 % of control.

From PubChem BioAssay AID248 (DTP/NCI, 2004)
